These are literature values, as cited in patent US6462233B1, “Process for the preparation of sorbic acid” (Daicel Chemical Industries, Ltd., priority 1998, dated 2002).

For the series the following is noted: hot water around 100° C.

As for `C/C=C/C=C/C(=O)O` [sorbic acid], the “solubility of sorbic acid” value is reported as “at most 3%”.
